Experiment [1] concerns the target T1, TRAP1 enzyme (Homo sapiens, UniProt Q12931).
T1 construct: 150 nM Trap1 enzyme was incubated with various concentrations of the test compound
T1 sequence (Q12931 60-704): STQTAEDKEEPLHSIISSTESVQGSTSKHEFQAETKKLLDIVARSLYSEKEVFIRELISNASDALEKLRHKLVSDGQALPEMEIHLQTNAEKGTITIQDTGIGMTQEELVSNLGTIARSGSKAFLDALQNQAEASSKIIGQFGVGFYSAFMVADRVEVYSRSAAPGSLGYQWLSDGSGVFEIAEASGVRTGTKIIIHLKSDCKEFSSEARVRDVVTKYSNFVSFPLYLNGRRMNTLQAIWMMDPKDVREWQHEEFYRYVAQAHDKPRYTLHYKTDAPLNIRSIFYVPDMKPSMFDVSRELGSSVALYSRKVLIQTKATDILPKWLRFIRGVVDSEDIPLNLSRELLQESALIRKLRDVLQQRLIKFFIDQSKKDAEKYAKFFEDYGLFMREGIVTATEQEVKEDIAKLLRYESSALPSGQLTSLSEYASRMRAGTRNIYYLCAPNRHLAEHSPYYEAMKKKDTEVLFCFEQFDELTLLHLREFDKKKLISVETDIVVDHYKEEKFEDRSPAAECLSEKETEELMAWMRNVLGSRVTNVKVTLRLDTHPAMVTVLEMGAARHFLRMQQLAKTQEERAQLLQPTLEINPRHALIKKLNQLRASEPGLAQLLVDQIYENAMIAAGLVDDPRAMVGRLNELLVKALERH
Nature of the experiment: Malachite green phosphate assay of TRAP1 ATPase activity. It is filed as biochemical. Conditions: for EC50: concentration for half maximal activation, read-out: Malachite Green Fluor DRC: GeoMean EC50; for Emax: maximal percent activation, read-out: Malachite Green Fluor DRC: Mean Emax. The method, then:
The Potency of test compounds to modulate the ATPase activity of TRAP1 enzyme was evaluated using malachite green phosphatase assay. The assay is based on quantification of the green complex formed between Malachite Green, molybdate and inorganic phosphate generated in the phosphatase reaction. Assays were performed using a Malachite Green assay kit. All the assays were carried out in a 96-well transparent plate. The buffer used was 50 mM HEPES (pH 7.5), 20 mM KCl, 4 mM MgCl2 and 0.05% BSA. 150 nM Trap1 enzyme was incubated with various concentrations of the test compound (0.78 μM-100 μM) at 37° C. for 30 mins. 20 μM ATP was added to each well (except blank wells) to start the reaction and the plate was then incubated at 37° C. for 180 mins. 10 μl of the reaction volume of each sample was then transferred to a white 384-well proxiplate in quadruplets. 2.5 μl of Malachite Green reagent was added to all the wells and the plate was equilibrated for 15 mins. The reaction was stopped by adding 12% H2SO4 and the plate was read for fluorescence at 620 nm (λex=573 nm). The amount of phosphate released was estimated from a phosphate standard curve generated at the same experimental conditions. Emax (Maximal percent activation) and EC50 (concentration of test compound for half maximal activation) were estimated by fitting the dose response data to a sigmoidal curve fitting equation using Graphpad Prism software V.7.0.

Experiment [2] has as its target T1, TRAP1 enzyme. Briefly: ADP Glo assay of TRAP1 ATPase activity. It is filed as biochemical. Conditions: for EC50: concentration for half maximal activation, read-out: ADP GLO DRC: GeoMean EC50; for Emax: maximal percent activation, read-out: ADP GLO DRC: Mean Emax. The essentials:
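ADP-Glo luminescence quantifying ADP from 150 nM TRAP1 preincubated 30 min at 37° C with compound (0.79–100 μM), then 20 μM ATP for 60 min at 37° C. Buffer: 25 mM Pipes pH 7.5, 40 mM KCl, 0.05 mM MgCl2, EGTA, BSA, detergents. ADP from ATP/ADP standard curve; Emax and EC50 from sigmoidal fit.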
In general terms: ADP-Glo turns the ADP formed in a reaction into a luminescent signal.

In a further experiment the test system is mIMCD3 Pkd1 KO cells. Briefly: Mouse cell derived cyst assay. It is filed as cell-based. Conditions: Pkd 1 KO mouse cell derived cyst forming assay; FIG. 16. The method, then: Mouse cell derived cyst assays were performed as described in Booij, Tijmen H et al., SLAS discovery: advancing life sciences R & D vol. 22.8 (2017): 974-984, or as described below.
Murine inner medullary collecting duct cell line (mIMCD3 Pkd1^−/− cells) • mIMCD3 Pkd1 KO cells were seeded in 384 wells plates in extracellular matrix. • 4 days after seeding, cultures were co-exposed to treatments and stimuli (2.5 μM forskolin); • After 72 h, cultures were fixed, stained for nuclei and actin cytoskeleton and imaged with 4× magnification; and • Image analysis of the 3D stack was done using Ominer™ image analysis software.

The test system of experiment [3] is tamoxifen-induced polycystic kidney disease model (Ksp-TamCre×PkdlLox). Nature of the experiment: Tamoxifen-induced polycystic kidney disease mouse model. It is filed as in vivo. As to conditions: compound 1206 10 mg/kg po QD 14d; for 2 KW/BW ratio (kidney weight/body weight): compared to tamoxifen-induced vehicle control group. On the procedure: Compound 1206 (10 mg/kg po, QD dosing for 14d, n=13/group) was assessed in a tamoxifen-induced polycystic kidney disease model (Ksp-TamCre×PkdlLox; Human Molecular Genetics, 2007, Vol. 16, No. 24, 3188-3196). A negative control group induced with tamoxifen (Vehicle) and a negative control group not induced with tamoxifen (No Tam) were included. A positive control group was dosed with everolimus. Mice were dosed orally on both PND 10, 11 with 25 mg/kg tamoxifen. Oral dosage of vehicle, compound 1206, and everolimus started from PND 14 onwards to PND 27. The readouts of this study were body weight, kidney weight, BUN levels and histopathology assessment including cyst index.
The fixated kidney half was processed for paraffin embedding and further pathological assessment after hematoxylin-eosin staining. One piece of each H-E stained kidney half was observed by a board certified pathologist, who read a cross section of the kidney. For each kidney one section was evaluated. From this section an overview photo was taken (2X) and used to calculate the cystic index. The cystic areas were identified by a color thresholding method using an image analysis system (Image software, public domain software, NIH, Bethesda, Md.). The threshold area was calculated within a defined ROI (region of interest) representing the total area analyzed. This area represents at least 70-80% of the entire kidney section. The cystic index (CI) is defined as the percentage of the area of cysts lumen (in pixels) over the total kidney area in the selected ROI (in pixels).

Where [4] appears, read: compared with tamoxifen-induced vehicle control group.

Bounds are passed on as bounds.

By EC50 is commonly meant the concentration at which the effect is half-maximal. As a reminder, the Emax is the greatest response seen or fitted, relative to the assay's reference. Take `COc1ncc(NC(=O)c2ncc(-c3ccccc3)o2)cc1S(=O)(=O)Nc1ccc(Cl)cc1` [compound 535, N-(5-(N-(4-chlorophenyl)sulfamoyl)-6-methoxypyridin-3-yl)-5-phenyloxazole-2-carboxamide]: on TRAP1 enzyme [1], the EC50 was 10 to 20 µM and the Emax lay within 160 to 199%.
On to `Cc1cccc(C)c1NS(=O)(=O)c1cncc(NC(=O)c2cnc(-c3ccccc3)[nH]2)c1` [compound 592, N-(5-(N-(2,6-dimethylphenyl)sulfamoyl)pyridin-3-yl)-2-phenyl-1H-imidazole-5-carboxamide], for which, on TRAP1 enzyme [1], the half-maximal effective concentration (EC50) was 20 to 100 µM and the maximal effect (Emax) fell in the range of 160 to 199%.
For `COc1ncc(NC(=O)c2ncc(-c3ccccc3)o2)cc1S(=O)(=O)Nc1ccc(C(F)(F)F)cc1` [compound 594, N-(6-methoxy-5-(N-(4-(trifluoromethyl)phenyl)sulfamoyl)pyridin-3-yl)-5-phenyloxazole-2-carboxamide], at TRAP1 enzyme [1], the EC50 lay in the range of 20 to 100 µM and the maximum response (Emax) lay in the range of 119 to 159%.
With `COc1ncc(NC(=O)c2cnc(-c3ccccc3)o2)cc1S(=O)(=O)Nc1ccc(C(F)(F)F)cc1` [compound 604, N-(6-methoxy-5-(N-(4-(trifluoromethyl)phenyl)sulfamoyl)pyridin-3-yl)-2-phenyloxazole-5-carboxamide], at TRAP1 enzyme [1], the EC50 lay within 20 to 100 µM and the Emax lay in the range of 160 to 199%.
Take `O=C(Nc1cccc(S(=O)(=O)Nc2ccc(Cl)cc2)n1)c1cnc(-c2ccccc2)[nH]1` [compound 612, N-(6-(N-(4-chlorophenyl)sulfamoyl)pyridin-2-yl)-2-phenyl-1H-imidazole-5-carboxamide]: on TRAP1 enzyme [1], the EC50 is 20 to 100 µM and the maximum response (Emax) was in the range of 200 to 300%.
For `COc1ncc(NC(=O)c2ncc(-c3ccccc3)o2)cc1S(=O)(=O)Nc1c(Cl)cccc1Cl` [compound 670, N-(5-(N-(2,6-dichlorophenyl)sulfamoyl)-6-methoxypyridin-3-yl)-5-phenyloxazole-2-carboxamide], at TRAP1 enzyme [1], the EC50 lay within 20 to 100 µM and the maximal effect (Emax) was in the range of 200 to 300%. Besides, on TRAP1 enzyme [2], the 50% effective concentration (EC50) was 20 to 100 µM and the Emax lay within 160 to 199%.
For `COc1ncc(NC(=O)c2ccc3c(c2)n(C)c(=O)n3C)cc1S(=O)(=O)Nc1ccc(Cl)cc1` [compound 1206, N-(5-(N-(4-chlorophenyl)sulfamoyl)-6-methoxypyridin-3-yl)-1,3-dimethyl-2-oxo-2,3-dihydro-1H-benzo[d]imidazole-5-carboxamide], the cyst formation result in the experiment with mIMCD3 Pkd1 KO cells is “preventing cyst formation”. On TRAP1 enzyme [2], the EC50 was less than 10 µM and the maximal response (Emax) is 119 to 159%. The “2 KW/BW ratio (kidney weight/body weight)” value in experiment [3] is “significantly lower”. In experiment [3] (setting [4]), the cystic index entry is listed as “significantly lower” and the “urea levels (BUN)” value was “significantly lower”.
For `CO[C@H]1C[C@@H]2CC[C@@H](C)[C@@](O)(O2)C(=O)C(=O)N2CCCC[C@H]2C(=O)O[C@H]([C@H](C)C[C@@H]2CC[C@@H](OCCO)[C@H](OC)C2)CC(=O)[C@H](C)/C=C(\C)[C@@H](O)[C@@H](OC)C(=O)[C@H](C)C[C@H](C)/C=C/C=C/C=C/1C` [everolimus, reference compound], the “2 KW/BW ratio (kidney weight/body weight)” value in experiment [3] is listed as “significantly lower”. Besides, the cystic index entry in experiment [3] (setting [4]) is “significantly lower”.
